# Source: ChEMBL document CHEMBL3822364, “Synthesis, characterization and antimicrobial activity of novel Schiff base tethered boronate esters of 1,2-O-isopropylidene-α-d-xylofuranose” (2016)
# Active and inactive are the calls of the source. No cut-off for these calls is given here.
# Tests used:
# Streptococcus mutans [1] = assay: Antibacterial activity against Streptococcus mutans MTCC 497 assessed as zone of inhibition at 100 ug/well measured after 24 hrs by agar well diffusion method; type: functional; details: MTCC 497, 24 h, read-out: DIZ
# Micrococcus luteus [2] = assay: Antibacterial activity against Micrococcus luteus MTCC 106 assessed as zone of inhibition at 100 ug/well measured after 24 hrs by agar well diffusion method; type: functional; details: MTCC 106, 24 h, read-out: DIZ
# Staphylococcus aureus [3] = assay: Antibacterial activity against Staphylococcus aureus MTCC 3160 assessed as zone of inhibition at 100 ug/well measured after 24 hrs by agar well diffusion method; type: functional; details: MTCC 3160, 24 h, read-out: DIZ
# Salmonella paratyphi [4] = assay: Antibacterial activity against Salmonella paratyphi assessed as zone of inhibition at 100 ug/well measured after 24 hrs by agar well diffusion method; type: functional, Salmonella enterica subsp. enterica serovar Paratyphi A; details: Salmonella enterica, read-out: DIZ
# Salmonella typhi [5] = assay: Antibacterial activity against Salmonella typhi assessed as zone of inhibition at 100 ug/well measured after 24 hrs by agar well diffusion method; type: functional, Salmonella enterica subsp. enterica serovar Typhi; details: Salmonella enterica, read-out: DIZ
# Klebsiella pneumoniae [6] = assay: Antibacterial activity against Klebsiella pneumoniae MTCC 3384 assessed as zone of inhibition at 100 ug/well measured after 24 hrs by agar well diffusion method; type: functional; details: MTCC 3384, 24 h, read-out: DIZ
# Candida albicans [7] = assay: Antifungal activity against Candida albicans MTCC 3017 assessed as zone of inhibition at 100 ug/well measured after 48 hrs by agar well diffusion method; type: functional; details: MTCC 3017, 48 h, read-out: DIZ
# Aspergillus fumigatus [8] = assay: Antifungal activity against Aspergillus fumigatus MTCC 343 assessed as zone of inhibition at 100 ug/well measured after 48 hrs by agar well diffusion method; type: functional; details: MTCC 343, 48 h, read-out: DIZ
# Streptococcus mutans [9] = assay: Antibacterial activity against Streptococcus mutans MTCC 497 measured after 24 hrs by NCCL protocol based broth dilution method; type: functional
# Micrococcus luteus [10] = assay: Antibacterial activity against Micrococcus luteus MTCC 106 measured after 24 hrs by NCCL protocol based broth dilution method; type: functional
# Staphylococcus aureus [11] = assay: Antibacterial activity against Staphylococcus aureus MTCC 3160 measured after 24 hrs by NCCL protocol based broth dilution method; type: functional
# Salmonella paratyphi [12] = assay: Antibacterial activity against Salmonella paratyphi measured after 24 hrs by NCCL protocol based broth dilution method; type: functional
# Salmonella typhi [13] = assay: Antibacterial activity against Salmonella typhi measured after 24 hrs by NCCL protocol based broth dilution method; type: functional
# Klebsiella pneumoniae [14] = assay: Antibacterial activity against Klebsiella pneumoniae MTCC 3384 measured after 24 hrs by NCCL protocol based broth dilution method; type: functional
# Candida albicans [15] = assay: Antifungal activity against Candida albicans MTCC 3017 measured after 48 hrs by NCCL protocol based broth dilution method; type: functional
# Aspergillus fumigatus [16] = assay: Antifungal activity against Aspergillus fumigatus MTCC 343 measured after 48 hrs by NCCL protocol based broth dilution method; type: functional
# [17] = Salmonella enterica subsp. enterica serovar Paratyphi A
# [18] = Salmonella enterica subsp. enterica serovar Typhi
Structure (SMILES),zone of inhibition at 100 µg/disc (Streptococcus mutans [1]),zone of inhibition at 100 µg/disc (Micrococcus luteus [2]),zone of inhibition at 100 µg/disc (Staphylococcus aureus [3]),zone of inhibition at 100 µg/disc (Salmonella paratyphi [4]),zone of inhibition at 100 µg/disc (Salmonella typhi [5]),zone of inhibition at 100 µg/disc (Klebsiella pneumoniae [6]),zone of inhibition at 100 µg/disc (Candida albicans [7]),zone of inhibition at 100 µg/disc (Aspergillus fumigatus [8]),"MIC (Streptococcus mutans [9]; MTCC 497, 24 h)","MIC (Micrococcus luteus [10]; MTCC 106, 24 h)","MIC (Staphylococcus aureus [11]; MTCC 3160, 24 h)","MIC (Candida albicans [15]; MTCC 3017, 48 h)",MIC (Salmonella paratyphi [12]; Salmonella enterica),MIC (Salmonella typhi [13]; Salmonella enterica),"MIC (Klebsiella pneumoniae [14]; MTCC 3384, 24 h)","MIC (Aspergillus fumigatus [16]; MTCC 343, 48 h)",further results
CC1(C)O[C@H]2O[C@@H]3COC(c4ccc(/C=N\c5ccc(F)cc5)cc4)O[C@@H]3[C@H]2O1 (stereo partly drawn),6 mm,0 mm,8 mm,0 mm,0 mm,0 mm,6 mm,0 mm,250 µg/mL,500 µg/mL,500 µg/mL,500 µg/mL,,,,,MIC (Salmonella paratyphi [12]; [17]): inactive; MIC (Salmonella typhi [13]; [18]): inactive; MIC (Klebsiella pneumoniae [14]): inactive; MIC (Aspergillus fumigatus [16]): inactive
CC1(C)O[C@H]2O[C@@H]3COB(c4ccc(/C=N/c5ccc(F)cc5)cc4)O[C@@H]3[C@H]2O1,21 mm,15 mm,18 mm,22 mm,20 mm,21 mm,16 mm,0 mm,31.2 µg/mL,62.5 µg/mL,62.5 µg/mL,125 µg/mL,31.2 µg/mL,62.5 µg/mL,31.2 µg/mL,250 µg/mL,
CC1(C)O[C@H]2O[C@@H]3COB(c4cccc(/C=N/c5ccc(Cl)cc5)c4)O[C@@H]3[C@H]2O1,16 mm,17 mm,15 mm,13 mm,25 mm,22 mm,11 mm,0 mm,125 µg/mL,125 µg/mL,250 µg/mL,250 µg/mL,250 µg/mL,31.2 µg/mL,62.5 µg/mL,500 µg/mL,
Cc1ccc(/N=C/c2ccc(B3OC[C@H]4O[C@@H]5OC(C)(C)O[C@@H]5[C@H]4O3)cc2)cc1,17 mm,12 mm,17 mm,0 mm,18 mm,24 mm,12 mm,0 mm,125 µg/mL,125 µg/mL,125 µg/mL,250 µg/mL,500 µg/mL,125 µg/mL,62.5 µg/mL,500 µg/mL,
CC1(C)O[C@H]2O[C@@H]3COC(c4ccc(C=O)cc4)O[C@@H]3[C@H]2O1 (stereo partly drawn),0 mm,0 mm,0 mm,0 mm,0 mm,0 mm,0 mm,0 mm,,,,,,,,,MIC (Streptococcus mutans [9]): inactive; MIC (Micrococcus luteus [10]): inactive; MIC (Staphylococcus aureus [11]): inactive; MIC (Salmonella paratyphi [12]; [17]): inactive; MIC (Salmonella typhi [13]; [18]): inactive; MIC (Klebsiella pneumoniae [14]): inactive; MIC (Candida albicans [15]): inactive; MIC (Aspergillus fumigatus [16]): inactive
CC1(C)O[C@H]2O[C@@H]3COC(c4cccc(/C=N/c5ccc(F)cc5)c4)O[C@@H]3[C@H]2O1 (stereo partly drawn),6 mm,0 mm,7 mm,0 mm,0 mm,0 mm,6 mm,0 mm,250 µg/mL,500 µg/mL,500 µg/mL,500 µg/mL,,,,,MIC (Salmonella paratyphi [12]; [17]): inactive; MIC (Salmonella typhi [13]; [18]): inactive; MIC (Klebsiella pneumoniae [14]): inactive; MIC (Aspergillus fumigatus [16]): inactive
CC1(C)O[C@H]2O[C@@H]3COB(c4cccc(N)c4)O[C@@H]3[C@H]2O1,17 mm,13 mm,12 mm,13 mm,11 mm,12 mm,13 mm,0 mm,125 µg/mL,250 µg/mL,500 µg/mL,500 µg/mL,500 µg/mL,500 µg/mL,500 µg/mL,500 µg/mL,
CC1(C)O[C@H]2O[C@@H]3COB(c4cccc(/C=N/c5ccccc5)c4)O[C@@H]3[C@H]2O1,21 mm,14 mm,13 mm,21 mm,21 mm,19 mm,11 mm,0 mm,62.5 µg/mL,250 µg/mL,125 µg/mL,250 µg/mL,62.5 µg/mL,62.5 µg/mL,125 µg/mL,500 µg/mL,
Cc1ccc(/N=C/c2cccc(B3OC[C@H]4O[C@@H]5OC(C)(C)O[C@@H]5[C@H]4O3)c2)cc1,13 mm,12 mm,13 mm,12 mm,20 mm,20 mm,17 mm,14 mm,250 µg/mL,250 µg/mL,125 µg/mL,250 µg/mL,500 µg/mL,125 µg/mL,125 µg/mL,125 µg/mL,
Cc1ccccc1B1OC[C@H]2O[C@@H]3OC(C)(C)O[C@@H]3[C@H]2O1,9 mm,6 mm,7 mm,6 mm,7 mm,6 mm,7 mm,6 mm,125 µg/mL,250 µg/mL,250 µg/mL,500 µg/mL,125 µg/mL,250 µg/mL,250 µg/mL,500 µg/mL,
COc1ccc(/C=N/c2cccc(B3OC[C@H]4O[C@@H]5OC(C)(C)O[C@@H]5[C@H]4O3)c2)c(O)c1,22 mm,21 mm,15 mm,0 mm,21 mm,19 mm,13 mm,0 mm,62.5 µg/mL,62.5 µg/mL,125 µg/mL,250 µg/mL,250 µg/mL,62.5 µg/mL,62.5 µg/mL,250 µg/mL,
CC(C)c1ccc(/N=C/c2ccc(B3OC[C@H]4O[C@@H]5OC(C)(C)O[C@@H]5[C@H]4O3)cc2)cc1,19 mm,13 mm,16 mm,0 mm,22 mm,24 mm,12 mm,0 mm,125 µg/mL,250 µg/mL,125 µg/mL,250 µg/mL,500 µg/mL,62.5 µg/mL,31.2 µg/mL,500 µg/mL,
CN[C@@H]1[C@H](O[C@H]2[C@H](O[C@H]3[C@H](O)[C@@H](O)[C@H](N=C(N)N)[C@@H](O)[C@@H]3N=C(N)N)O[C@@H](C)[C@]2(O)C=O)O[C@@H](CO)[C@H](O)[C@H]1O.CN[C@@H]1[C@H](O[C@H]2[C@H](O[C@H]3[C@H](O)[C@@H](O)[C@H](N=C(N)N)[C@@H](O)[C@@H]3N=C(N)N)O[C@@H](C)[C@]2(O)C=O)O[C@@H](CO)[C@H](O)[C@H]1O.O=S(=O)(O)O.O=S(=O)(O)O.O=S(=O)(O)O [STREPTOMYCIN SULFATE],26 mm,20 mm,26 mm,23 mm,25 mm,25 mm,,,31.2 µg/mL,31.2 µg/mL,15.6 µg/mL,,15.6 µg/mL,31.2 µg/mL,31.2 µg/mL,,
OC(Cn1cncn1)(Cn1cncn1)c1ccc(F)cc1F [FLUCONAZOLE],,,,,,,18 mm,,,,,62.5 µg/mL,,,,,
C[C@@H]1C[C@@H]([C@H](O)CC2CC(=O)NC(=O)C2)C(=O)[C@@H](C)C1 [CYCLOHEXIMIDE],,,,,,,,25 mm,,,,,,,,125 µg/mL,
